Data as given in paper PMC8881077 (Journal of Enzyme Inhibition and Medicinal Chemistry, 2022).
Where two headings read alike, the source gives them in different places.

Tests used:
PC12 cells [1] = assay: Neuroprotective effect on H2O2-induced PC12 cells injury, MTT assay; assay type: cell-based; details: 100 μM H2O2, PC12 cells
huBuChE = target: T1, huBuChE (Homo sapiens, UniProt P06276); assay: biochemical; assay type: biochemical; details: from human serum; read-out: IC50 ± SD huBuChE
T1 construct: BuChE from rat serum or human serum (Sigma Co.); purchased Sigma Co; host or cells: human serum
T1 sequence (P06276 29-602): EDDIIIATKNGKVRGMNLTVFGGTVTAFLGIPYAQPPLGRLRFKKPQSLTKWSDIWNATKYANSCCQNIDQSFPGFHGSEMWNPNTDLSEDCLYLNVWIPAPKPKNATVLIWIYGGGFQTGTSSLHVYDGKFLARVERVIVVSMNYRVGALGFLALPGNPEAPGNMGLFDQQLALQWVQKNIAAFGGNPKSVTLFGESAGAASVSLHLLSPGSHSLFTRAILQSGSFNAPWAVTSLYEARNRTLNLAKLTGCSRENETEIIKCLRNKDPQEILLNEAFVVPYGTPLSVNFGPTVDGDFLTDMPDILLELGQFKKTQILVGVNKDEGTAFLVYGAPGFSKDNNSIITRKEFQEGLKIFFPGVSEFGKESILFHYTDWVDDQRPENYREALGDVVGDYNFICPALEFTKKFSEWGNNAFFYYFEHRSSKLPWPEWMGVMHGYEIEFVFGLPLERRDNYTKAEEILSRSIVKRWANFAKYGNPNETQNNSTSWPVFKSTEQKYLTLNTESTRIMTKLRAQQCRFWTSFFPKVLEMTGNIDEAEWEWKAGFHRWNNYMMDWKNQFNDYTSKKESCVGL
Protocol: (§1) The AChE and BuChE inhibitory activities of the synthesised compounds were evaluated using the Ellman assay with slight modification. AChE from 5% rat cortex homogenate or human erythrocytes (Sigma Co.). BuChE from rat serum or human serum (Sigma Co.).

Aβ1–42 [2] = target: T2, Aβ1–42 (Homo sapiens, UniProt P05067); assay: Self-induced Aβ1–42 aggregation, Thioflavin T fluorescence; assay type: biochemical; details: tested compounds and Aβ1–42 25 μM
T2 sequence (P05067 672-713): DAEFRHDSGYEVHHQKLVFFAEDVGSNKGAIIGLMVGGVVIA
Text: (§2) The Thioflavin T-based flurometric assay was employed to test the inhibition potency on self-induced/Cu^2+-induced Aβ1-42 aggregation.

huAChE [3] = target: T3, huAChE (Homo sapiens, UniProt P22303); assay: biochemical; assay type: biochemical; parameters: AChE from 5% rat cortex homogenate or human erythrocytes (Sigma Co.); purchased Sigma Co; host or cells: human erythrocytes; details: for SI: Selectivity Index = IC50 (BuChE)/IC50 (AChE), human enzymes; for IC50: from human erythrocytes, read-out: IC50 ± SD huAChE
T3 sequence (P22303 32-617 isoform P22303-2 limits assumed): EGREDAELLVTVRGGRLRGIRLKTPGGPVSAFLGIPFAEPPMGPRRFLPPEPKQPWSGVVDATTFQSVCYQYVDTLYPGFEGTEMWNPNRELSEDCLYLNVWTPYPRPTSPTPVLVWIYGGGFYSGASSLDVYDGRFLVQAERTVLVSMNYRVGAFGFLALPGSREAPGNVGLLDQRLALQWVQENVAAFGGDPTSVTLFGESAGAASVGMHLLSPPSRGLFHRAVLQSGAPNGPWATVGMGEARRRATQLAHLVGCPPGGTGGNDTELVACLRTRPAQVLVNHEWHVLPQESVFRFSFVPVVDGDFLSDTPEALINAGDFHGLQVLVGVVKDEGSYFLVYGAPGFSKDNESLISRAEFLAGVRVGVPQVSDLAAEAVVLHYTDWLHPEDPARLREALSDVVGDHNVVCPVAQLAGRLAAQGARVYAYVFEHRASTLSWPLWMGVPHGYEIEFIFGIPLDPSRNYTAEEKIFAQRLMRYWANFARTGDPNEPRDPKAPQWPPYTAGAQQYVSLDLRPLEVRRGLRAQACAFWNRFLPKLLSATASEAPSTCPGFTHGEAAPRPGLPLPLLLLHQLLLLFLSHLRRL
Protocol: as §1

huAChE [4] = target: T3, huAChE; assay type: biochemical; parameters: AChE from human erythrocytes (Sigma Co.); purchased Sigma Co; host or cells: human erythrocytes; details: for huAChE activity restored: 0.1 × IC50, at 60 min, Figure 2B; for huAChE activity increase when diluted to 0.1 × IC50: Figure 2A, dilution to 0.1 × IC50
Protocol: In order to further explore the reversibility of inhibition, the recovery of huAChE inhibitors inhibition after dilution was carried out with time monitoring.
Data were expressed as the mean ± SEM by three independent experiments.

[5] = for ORAC: Trolox as standard
Protocol: The skeleton compounds naringenin and apigenin were also evaluated for comparison purposes, and vitamin E analogue Trolox was used as a standard.
The antioxidant potency of target compounds was tested using an oxygen radical absorbance capacity fluorescein (ORAC-FL) assay.

huAChE [6] = target: T3, huAChE; assay: Enzyme kinetic study of huAChE (Lineweaver-Burk); assay type: biochemical; parameters: AChE from human erythrocytes (Sigma Co.); purchased Sigma Co; host or cells: human erythrocytes; details: for type of AChE inhibition: Lineweaver-Burk plot; for Ki: replots of slope versus concentration, read-out: inhibition constant Ki
Text: An enzyme kinetic study was applied to determine the mechanism of AChE inhibition for compounds 5f and 7k. The lineweaver-Burk double reciprocal plot was used to define the inhibition by plotting the initial velocities of the substrate at the y-axis and increasing concentrations of the substrate at the x-axis[17]^,[19]. […] […].
Figure 3. Enzyme kinetic study on the mechanism of huAChE inhibition by compounds 5f and 7k. […] (D) Representing the plots of slope versus the concentration of 7k for determining the inhibition constants Ki. […] |

ratBuChE = target: T4, ratBuChE (Rattus norvegicus, UniProt Q9JKC1); assay: ratBuChE inhibition, modified Ellman's method; assay type: biochemical
T4 construct: BuChE from rat serum or human serum (Sigma Co.); from tissue; host or cells: rat serum
T4 sequence (Q9JKC1 24-597): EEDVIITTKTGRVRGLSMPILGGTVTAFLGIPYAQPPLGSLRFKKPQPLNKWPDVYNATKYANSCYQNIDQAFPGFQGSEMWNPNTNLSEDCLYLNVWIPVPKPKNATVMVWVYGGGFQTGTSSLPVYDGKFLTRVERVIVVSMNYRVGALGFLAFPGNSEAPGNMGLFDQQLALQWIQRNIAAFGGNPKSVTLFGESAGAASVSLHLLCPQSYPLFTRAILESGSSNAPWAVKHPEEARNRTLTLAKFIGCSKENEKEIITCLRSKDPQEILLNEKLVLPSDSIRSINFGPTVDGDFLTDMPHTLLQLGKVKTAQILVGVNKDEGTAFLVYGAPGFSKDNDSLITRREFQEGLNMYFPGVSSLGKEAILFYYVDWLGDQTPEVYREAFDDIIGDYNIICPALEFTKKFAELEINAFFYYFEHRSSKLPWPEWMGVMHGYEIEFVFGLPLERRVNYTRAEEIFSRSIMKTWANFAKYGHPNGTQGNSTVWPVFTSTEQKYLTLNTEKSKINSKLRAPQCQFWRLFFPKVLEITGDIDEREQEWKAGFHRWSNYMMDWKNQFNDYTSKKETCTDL
Protocol: as §1

Aβ1–42 [7] = target: T2, Aβ1–42; assay: Cu^2+-induced Aβ1–42 aggregation, ThT fluorescence; assay type: biochemical; details: tested compounds and Aβ1–42 25 μM
Protocol: Curcumin was also tested as a referenced compound.
as §2

PC12 cells [8] = assay: Cytotoxicity on PC12 cells, MTT assay; assay type: cell-based; details: 40 μM
BV-2 cells = assay: Cytotoxicity on BV-2 cells, MTT assay; assay type: cell-based; details: 1 μM, 3 μM and 9 μM
Protocol: Compounds 5f and 7k were selected to test the anti-inflammatory potency by measuring the production of inflammatory mediators TNF-α and NO in LPS-induced BV-2 cells[32]^,[33]. • Cytotoxicity of compounds 5f and 7k on BV-2 cells. Firstly, the cytotoxicity of compounds 5f and 7k were tested using an MTT assay. […] In inhibition of LPS-induced, NO production was tested through the Griess reaction method. […] […]. In addition, to further investigate the effects of compounds 5f and 7k on LPS-induced TNF-α production in BV-2 cells, the enzyme-linked immunosorbent assay (ELISA) was used. […].
The anti-neuroinflammatory property of compounds 5f and 7k was assessed using BV-2 cells by evaluating the level of NO production and TNF-α production[32]^,[33]. Firstly, the cytotoxicity of compounds 5f and 7k was tested on BV-2 cells using an MTT assay. BV-2 cells were seeded in DMEM (100 μL) and cultured in a 96-well cell culture microplate and incubated in a humidified incubator containing 5% CO2 at 37 °C for 24 h. Then, 10 μL of 5f or 7k were added to cells in triplicate wells, followed by incubation for another 30 min. […] Finally, the crystals obtained were dissolved in DMSO (200 μ L) and OD values were measured at 490 nm. The results were recorded and expressed as the percent cell viability compared to the control group.

[9] = target: huAChE-induced Aβ1–40 aggregation (Homo sapiens, UniProt P22303); assay: huAChE-induced Aβ1–40 aggregation, ThT assay; assay type: biochemical; details: inhibitor 100 μM, Aβ1–40 230 μM, Aβ1–40/AChE ratio 100/1
Sequence of huAChE-induced Aβ1–40 aggregation (P22303 32-588 isoform P22303-2): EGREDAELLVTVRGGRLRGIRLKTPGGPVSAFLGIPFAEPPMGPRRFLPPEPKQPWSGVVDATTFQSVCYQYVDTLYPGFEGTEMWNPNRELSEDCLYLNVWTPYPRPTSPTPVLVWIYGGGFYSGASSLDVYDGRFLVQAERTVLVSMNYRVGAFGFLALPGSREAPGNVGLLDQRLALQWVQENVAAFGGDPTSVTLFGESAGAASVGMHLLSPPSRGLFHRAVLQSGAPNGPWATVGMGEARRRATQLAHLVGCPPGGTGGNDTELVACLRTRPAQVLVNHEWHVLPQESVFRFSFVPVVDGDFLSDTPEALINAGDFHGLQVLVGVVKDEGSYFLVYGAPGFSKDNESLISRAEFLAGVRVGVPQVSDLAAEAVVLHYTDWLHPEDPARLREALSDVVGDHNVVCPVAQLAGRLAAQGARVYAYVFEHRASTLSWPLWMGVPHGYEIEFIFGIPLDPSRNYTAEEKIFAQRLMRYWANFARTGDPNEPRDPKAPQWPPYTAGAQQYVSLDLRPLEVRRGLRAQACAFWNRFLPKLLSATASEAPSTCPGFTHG

ratAChE = target: T5, ratAChE (Rattus norvegicus, UniProt P37136); assay: biochemical; details: for SI: Selectivity Index = IC50 (BuChE)/IC50 (AChE), rat enzymes; for IC50: from 5% rat cortex homogenate, read-out: IC50 ± SD ratAChE
T5 construct: AChE from 5% rat cortex homogenate or human erythrocytes (Sigma Co.); from tissue; host or cells: 5% rat cortex homogenate
T5 sequence (P37136 32-614): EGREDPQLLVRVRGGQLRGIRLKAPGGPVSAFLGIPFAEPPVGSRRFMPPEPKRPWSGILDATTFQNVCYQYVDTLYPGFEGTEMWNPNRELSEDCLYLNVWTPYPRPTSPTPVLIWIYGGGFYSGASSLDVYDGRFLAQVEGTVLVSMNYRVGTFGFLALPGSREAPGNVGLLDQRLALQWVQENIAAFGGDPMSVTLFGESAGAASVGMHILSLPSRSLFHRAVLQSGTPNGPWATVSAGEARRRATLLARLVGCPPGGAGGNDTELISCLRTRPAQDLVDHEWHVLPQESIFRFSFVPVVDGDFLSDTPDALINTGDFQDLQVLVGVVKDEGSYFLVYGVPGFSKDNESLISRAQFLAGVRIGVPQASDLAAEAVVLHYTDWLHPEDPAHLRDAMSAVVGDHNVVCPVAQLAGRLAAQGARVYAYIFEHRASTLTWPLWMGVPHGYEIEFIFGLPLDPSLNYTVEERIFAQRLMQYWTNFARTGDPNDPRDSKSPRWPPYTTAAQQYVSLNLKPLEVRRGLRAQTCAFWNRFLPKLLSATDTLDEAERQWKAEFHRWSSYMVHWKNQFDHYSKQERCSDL
Protocol: as §1

AChE PAS = AChE PAS (Homo sapiens, UniProt P22303); assay: biochemical; assay type: binding
Sequence of AChE PAS (P22303 32-614): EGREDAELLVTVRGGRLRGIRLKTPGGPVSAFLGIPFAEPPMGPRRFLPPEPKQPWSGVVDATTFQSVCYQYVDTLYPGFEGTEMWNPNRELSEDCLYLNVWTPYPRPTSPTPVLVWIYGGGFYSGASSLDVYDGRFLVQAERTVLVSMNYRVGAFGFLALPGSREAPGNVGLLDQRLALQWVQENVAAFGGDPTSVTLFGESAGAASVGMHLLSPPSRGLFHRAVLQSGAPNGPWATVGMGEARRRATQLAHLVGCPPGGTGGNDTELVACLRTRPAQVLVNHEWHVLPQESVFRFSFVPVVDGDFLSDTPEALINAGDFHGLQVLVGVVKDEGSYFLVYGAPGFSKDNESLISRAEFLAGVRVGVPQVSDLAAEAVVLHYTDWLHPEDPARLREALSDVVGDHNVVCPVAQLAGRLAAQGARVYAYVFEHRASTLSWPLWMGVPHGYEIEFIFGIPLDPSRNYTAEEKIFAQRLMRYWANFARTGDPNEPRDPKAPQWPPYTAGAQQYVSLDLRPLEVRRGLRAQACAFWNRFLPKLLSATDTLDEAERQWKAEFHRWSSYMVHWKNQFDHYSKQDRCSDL

7-((6-(benzyl(ethyl)amino)hexyl)oxy)-2–(4-((6-(benzyl(ethyl)amino)hexyl)oxy)phenyl)-5-hydroxychroman-4-one [Compound 7k]
cell viability (PC12 cells [1]; compound 2.5 μM): 58.3%
cell viability (PC12 cells [1]; compound 5.0 μM): 63.7%
cell viability (PC12 cells [1]; compound 10.0 μM): 69.8%
IC50 (huBuChE): 8200 ± 370 nM
Inhibition of Aβ1–42 aggregation, Self-induced (%) (Aβ1–42 [2]): 43.8 ± 0.51%
SI (huAChE [3]): 14.4
IC50 (huAChE [3]): 570 ± 20 nM
reversibility of huAChE inhibition (huAChE [4]): reversible
huAChE activity (% control) (huAChE [4]; 0.1*IC50, diluted): 61.2 % control
huAChE activity restored (huAChE [4]): 96.8%
huAChE activity (% control) (huAChE [4]; 1*IC50, diluted): 53.4 % control
huAChE activity (% control) (huAChE [4]; 1*IC50, undiluted): 52.6 % control
huAChE activity increase when diluted to 0.1 × IC50 (huAChE [4]): 7.8%
ORAC [5]: 1.2 ± 0.02 μM of Trolox equivalent/μM of tested compound
type of AChE inhibition (huAChE [6]): mixed-type
Ki (huAChE [6]): 390 nM
IC50 (ratBuChE; BuChE from rat serum, read-out: IC50 ± SD ratBChE): 14800 ± 360 nM
Inhibition of Aβ1–42 aggregation, Cu^2+-induced (%) (Aβ1–42 [7]): 68.7 ± 0.46%
cytotoxicity on PC12 cells (PC12 cells [8]): did not show any cytotoxicity
cell viability of BV-2 cells (BV-2 cells): did not show obvious change
Inhibition of huAChE-induced Aβ1–40 aggregation (%) [9]: 43.4 ± 0.43%
SI (ratAChE): 18.7
IC50 (ratAChE): 790 ± 60 nM
Propidium iodide displacement from AChE PAS (% inhibition) (AChE PAS; 10 μM): 23.1 ± 1.2%
Propidium iodide displacement from AChE PAS (% inhibition) (AChE PAS; 50 μM): 34.3 ± 2.1%

CCN(CCCCCOc1cc(O)c2c(c1)OC(c1ccc(O)cc1)CC2=O)Cc1ccccc1 (stereo not drawn) [Compound 5f, 7-((5-(benzyl(ethyl)amino)pentyl)oxy)-5-hydroxy-2–(4-hydroxyphenyl)chroman-4-one]
viability at 2.5 µM (PC12 cells [1]; Rattus norvegicus, PC-12, compound 2.5 μM, read-out: cell viability): 62.9%
viability at 5 µM (PC12 cells [1]; Rattus norvegicus, PC-12, compound 5.0 μM, read-out: cell viability): 68.2%
viability at 10 µM (PC12 cells [1]; Rattus norvegicus, PC-12, compound 10.0 μM, read-out: cell viability): 73.4%
IC50 (huBuChE): 6300 ± 740 nM
inhibition at 25 µM (Aβ1–42 [2]): 62.1 ± 0.38%
SI (huAChE [3]): 6.9
IC50 (huAChE [3]): 910 ± 20 nM
reversibility of huAChE inhibition (huAChE [4]): reversible
huAChE activity (% control) (huAChE [4]; 0.1*IC50, diluted): 55.6 % control
huAChE activity restored (huAChE [4]): 89.8%
huAChE activity (% control) (huAChE [4]; 1*IC50, diluted): 48.7 % control
huAChE activity (% control) (huAChE [4]; 1*IC50, undiluted): 47.9 % control
huAChE activity increase when diluted to 0.1 × IC50 (huAChE [4]): 6.9%
ORAC values [5]: 2.3 eq
ORAC [5]: 2.3 ± 0.03 μM of Trolox equivalent/μM of tested compound
type of AChE inhibition (huAChE [6]): mixed-type
Ki (huAChE [6]): 740 nM
IC50 (ratBuChE): 16900 ± 270 nM
inhibition at 25 µM (Aβ1–42 [7]): 73.5 ± 0.25%
cytotoxicity on PC12 cells (PC12 cells [8]): did not show any cytotoxicity
cell viability of BV-2 cells (BV-2 cells): did not show obvious change
Inhibition of huAChE-induced Aβ1–40 aggregation (%) [9]: 51.7 ± 0.75%
SI (ratAChE): 9.9
IC50 (ratAChE): 1700 ± 80 nM
inhibition at 10 µM (AChE PAS; 10 μM, read-out: Propidium iodide displacement from AChE PAS (% inhibition)): 25.7 ± 1.9%
inhibition at 50 µM (AChE PAS; 50 μM, read-out: Propidium iodide displacement from AChE PAS (% inhibition)): 36.9 ± 3.5%
